Where two headings read alike, the source gives them in different places.
How the values were obtained:
[1] = tested on: MCF-7 tumors; experiment: Growth of MCF-7 breast carcinoma implanted in nude mice; type: in vivo; conditions: for Tumor size (mean ± standard error): 5 mg/kg CCI-779 PO q2d days 1-9
Experimental: In the third standard pharmacological test procedure, mice implanted with MCF-7 tumors were treated with a combination of ERA-923 and CCI-779. […] ERA-923 was dissolved in 1% Tween 80 and 0.9% NaCl Injection USP. Drug was aliquoted into daily doses using 10.0 ml glass bottles and frozen at −20° C. until needed. CCI-779 was made fresh using a 5% ETOH, 4.9% Phosal and 0.1% Tween 80 in Sterile Water. 0.2 ml of each drug was given orally starting the day after tumor implantation. ERA 923 was given daily for the duration of the experiment and CCI-779 was given every other day for the first 10 days. The control vehicles were given on the same regime as the drugs. MCF7 cells were cultured in IMEM containing 5% Fetal Bovine Serum with passages varying from 2-20. After trypsinization tumors were resuspended in IMEM with 2% Serum at a 1:1 ratio with Matrigel. 10 million cells were injected subcutaneously into the mammary tissue of each mouse using a 1.0 ml tuberculin syringe with a 23 3/4 gauge needle. Five to six week old female ovariectomized athymic nu/nu mice (Charles River Labs: Wilmington, Mass.) weighing from 20.0-23.0 g were used. The animals were housed 5 to a cage in a Microisolator Open Rack System (Lab Products: Maywood, N.J.). Each mouse received a 17β-Estradiol pellet (0.72 mg/pellet-60 day release). The pellets were injected with a 10 gauge trochar into the lateral side of the neck between the ear and the shoulder 1-2 weeks prior to tumor injection. Control groups were 15 mice/vehicle whereas the drug groups were 10 mice/drug. Tumors were measured weekly by means of solar calipers (Cole-Parmer Instuments: Vernon Hills, Ill.) and tumor weights were estimated from tumor diameters by the following formula:
Tumor weight (mg)=tumor length (mm)×tumor width (mm)^2/2.
Mice were euthanized 36 days after tumor injection by CO2 inhalation. […] Nude mice bearing MCF-7 tumors were given ERA-923, CCI-779 or the combination of both drugs.

[2] = tested on: MCF-7 human breast cancer cells; experiment: Inhibition of growth of MCF-7 breast cancer cells (MTT), with MacSynergy II synergy analysis; conditions: for inhibition at 0.005 µM / inhibition at 0.01 µM / inhibition at 0.05 µM / inhibition at 0.1 µM / inhibition at 0.2 µM / inhibition at 0.4 µM: Homo sapiens;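 for all read-outs here: cells treated five or six days with single agents or combinations, growth read by MTT, synergy surface equals observed % inhibition minus Bliss additive prediction, values under 0% signal antagonism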
Experimental: In these test procedures, rapamycin 42-ester with 3-hydroxy-2-(hydroxymethyl)-2-methylpropionic acid was used as a representative rapamycin, and 2-(4-hydroxy-phenyl)-3-methyl-1-[4-(2-piperdin-1-yl-ethoxy)-benzyl-1 H-indol-5-ol, raloxifene, and 4-hydroxytamoxifen were used as representative antiestrogens.
MCF-7 human breast cancer cells were maintained at 37° C. in a humidified atmosphere of 5% CO2 and 95% air in IMEM medium supplemented with 10% fetal bovine serum. […] One day before the experiment, cells were plated in 96-well plates at a cell density of 2,500 cells/well in IMEM medium supplemented with 10% fetal bovine serum. The next day, cells were treated with various concentrations of antiestrogen and rapamycin 42-ester with 3-hydroxy-2-(hydroxymethyl)-2-methylpropionic acid (referred to as CCI-779 in the tables below). Five or six-days later, cell growth was monitored. MTT solution (20 ul) (0.5 mg/ml) was added to each well and cells were incubated for an additional 4 h. The solution was then removed and 150 ul of DMSO added. The intensity of dark blue color corresponding to number of cells was read at 540 nm with an automated plate reader.
Briefly, theoretical additive interactions were calculated from the dose-response curves of each individual drug based on Bliss independence model. The calculated additive surface was then subtracted from the experimental surface to obtain a synergy surface representing % inhibition above the calculated additive value-synergy index. […] Likewise, any peak below the 0% plane is indicative of antagonism.

CO[C@H]1C[C@@H]2CC[C@@H](C)[C@@](O)(O2)C(=O)C(=O)N2CCCC[C@H]2C(=O)O[C@H]([C@H](C)C[C@@H]2CC[C@@H](OC(=O)C(C)(CO)CO)[C@H](OC)C2)CC(=O)[C@H](C)/C=C(\C)[C@@H](O)[C@@H](OC)C(=O)[C@H](C)C[C@H](C)/C=C/C=C/C=C/1C [CCI-779, rapamycin 42-ester with 3-hydroxy-2-(hydroxymethyl)-2-methylpropionic acid]
Tumor size (mean ± standard error) ([1]; day 14 after tumor implantation): 260 ± 18 mg
Tumor size (mean ± standard error) ([1]; day 21 after tumor implantation): 485 ± 53 mg
Tumor size (mean ± standard error) ([1]; day 28 after tumor implantation): 704 ± 63 mg
Tumor size (mean ± standard error) ([1]; day 36 after tumor implantation): 1123 ± 134 mg
inhibition of tumor growth ([1]; nude mice bearing MCF-7 tumors, growth inhibition=experimental value−200 (baseline)/control value −200): approximately 35%
increase of growth inhibition as estimated by the IC50 ([2]; CCI-779 in the presence of non-inhibitory concentrations of ERA-923): approximately 40 fold
inhibition at 0.005 µM ([2]; MCF7, read-out: Percent Inhibition, Table B, CCI-779 5 nM, 4-Hydroxytamoxifen 0 nM): -16.5%
inhibition at 0.01 µM ([2]; MCF7, read-out: Percent Inhibition, Table B, CCI-779 10 nM, 4-Hydroxytamoxifen 0 nM): 1.47%
inhibition at 0.05 µM ([2]; MCF7, read-out: Percent Inhibition, Table B, CCI-779 50 nM, 4-Hydroxytamoxifen 0 nM): 15%
inhibition at 0.1 µM ([2]; MCF7, read-out: Percent Inhibition, Table B, CCI-779 100 nM, 4-Hydroxytamoxifen 0 nM): 24.6%
inhibition at 0.2 µM ([2]; MCF7, read-out: Percent Inhibition, Table B, CCI-779 200 nM, 4-Hydroxytamoxifen 0 nM): 25.2%
inhibition at 0.4 µM ([2]; MCF7, read-out: Percent Inhibition, Table B, CCI-779 400 nM, 4-Hydroxytamoxifen 0 nM): 34%
inhibition at 0.005 µM ([2]; MCF7, read-out: Percent Inhibition, Table C, CCI-779 5 nM, Raloxifene 0 nM): -13.8%
inhibition at 0.01 µM ([2]; MCF7, read-out: Percent Inhibition, Table C, CCI-779 10 nM, Raloxifene 0 nM): -3.3%
inhibition at 0.05 µM ([2]; MCF7, read-out: Percent Inhibition, Table C, CCI-779 50 nM, Raloxifene 0 nM): 35.3%
inhibition at 0.1 µM ([2]; MCF7, read-out: Percent Inhibition, Table C, CCI-779 100 nM, Raloxifene 0 nM): 38.1%
inhibition at 0.2 µM ([2]; MCF7, read-out: Percent Inhibition, Table C, CCI-779 200 nM, Raloxifene 0 nM): 38.1%
inhibition at 0.4 µM ([2]; MCF7, read-out: Percent Inhibition, Table C, CCI-779 400 nM, Raloxifene 0 nM): 39.8%
inhibition at 0.005 µM ([2]; MCF7, read-out: Percent Inhibition, Table E, CCI-779 0 nM + CCI-779 5 nM): -4.19%
inhibition at 0.01 µM ([2]; MCF7, read-out: Percent Inhibition, Table E, CCI-779 0 nM + CCI-779 10 nM): 10.2%
inhibition at 0.05 µM ([2]; MCF7, read-out: Percent Inhibition, Table E, CCI-779 0 nM + CCI-779 50 nM): 49.8%
inhibition at 0.1 µM ([2]; MCF7, read-out: Percent Inhibition, Table E, CCI-779 0 nM + CCI-779 100 nM): 46.8%
inhibition at 0.2 µM ([2]; MCF7, read-out: Percent Inhibition, Table E, CCI-779 0 nM + CCI-779 200 nM): 53.5%
inhibition at 0.4 µM ([2]; MCF7, read-out: Percent Inhibition, Table E, CCI-779 0 nM + CCI-779 400 nM): 55.3%
inhibition at 0.005 µM ([2]; MCF7, read-out: Percent Inhibition, Table E, CCI-779 5 nM + CCI-779 5 nM): 13.2%
inhibition at 0.01 µM ([2]; MCF7, read-out: Percent Inhibition, Table E, CCI-779 5 nM + CCI-779 10 nM): 18.6%
inhibition at 0.05 µM ([2]; MCF7, read-out: Percent Inhibition, Table E, CCI-779 5 nM + CCI-779 50 nM): 49.2%
inhibition at 0.1 µM ([2]; MCF7, read-out: Percent Inhibition, Table E, CCI-779 5 nM + CCI-779 100 nM): 51%
inhibition at 0.2 µM ([2]; MCF7, read-out: Percent Inhibition, Table E, CCI-779 5 nM + CCI-779 200 nM): 58.1%
inhibition at 0.4 µM ([2]; MCF7, read-out: Percent Inhibition, Table E, CCI-779 5 nM + CCI-779 400 nM): 64.1%
inhibition at 0.005 µM ([2]; MCF7, read-out: Percent Inhibition, Table E, CCI-779 10 nM + CCI-779 5 nM): 18.8%
inhibition at 0.01 µM ([2]; MCF7, read-out: Percent Inhibition, Table E, CCI-779 10 nM + CCI-779 10 nM): 23.5%
inhibition at 0.05 µM ([2]; MCF7, read-out: Percent Inhibition, Table E, CCI-779 10 nM + CCI-779 50 nM): 51.2%
inhibition at 0.1 µM ([2]; MCF7, read-out: Percent Inhibition, Table E, CCI-779 10 nM + CCI-779 100 nM): 54.8%
inhibition at 0.2 µM ([2]; MCF7, read-out: Percent Inhibition, Table E, CCI-779 10 nM + CCI-779 200 nM): 62.4%
inhibition at 0.4 µM ([2]; MCF7, read-out: Percent Inhibition, Table E, CCI-779 10 nM + CCI-779 400 nM): 65.2%
inhibition at 0.005 µM ([2]; MCF7, read-out: Percent Inhibition, Table E, CCI-779 50 nM + CCI-779 5 nM): 48.3%
inhibition at 0.01 µM ([2]; MCF7, read-out: Percent Inhibition, Table E, CCI-779 50 nM + CCI-779 10 nM): 46.9%
inhibition at 0.05 µM ([2]; MCF7, read-out: Percent Inhibition, Table E, CCI-779 50 nM + CCI-779 50 nM): 50.3%
inhibition at 0.1 µM ([2]; MCF7, read-out: Percent Inhibition, Table E, CCI-779 50 nM + CCI-779 100 nM): 54.6%
inhibition at 0.2 µM ([2]; MCF7, read-out: Percent Inhibition, Table E, CCI-779 50 nM + CCI-779 200 nM): 57.5%
inhibition at 0.4 µM ([2]; MCF7, read-out: Percent Inhibition, Table E, CCI-779 50 nM + CCI-779 400 nM): 60.2%
inhibition at 0.005 µM ([2]; MCF7, read-out: Percent Inhibition, Table E, CCI-779 100 nM + CCI-779 5 nM): 54.2%
inhibition at 0.01 µM ([2]; MCF7, read-out: Percent Inhibition, Table E, CCI-779 100 nM + CCI-779 10 nM): 52.9%
inhibition at 0.05 µM ([2]; MCF7, read-out: Percent Inhibition, Table E, CCI-779 100 nM + CCI-779 50 nM): 51%

From patent US20020045638A1, “Method of treating estrogen receptor positive carcinoma” (priority 2000, published 2002)
